Test results reported in US20230099344A1, “COMPOUNDS AND METHODS FOR THE TARGETED DEGRADATION OF IRAK-4” (Arvinas Operations, Inc., priority 2021, published 2023).
Read-outs that look alike come from different tables or passages of the source.

Experiments:
Assay type in all cases: cell-based
IL6 = experiment: IL-1β stimulated IL6 inhibition assay in PBMC; conditions: human PBMCs, IL-1β stimulation, compound overnight, IL6 by MSD after 24 hrs; for IC50: read-out: IL1β stim IL6 inhibition IC50; for Emax: read-out: IL1β stim IL6 inhibition Ymax
Method: (§1) IL-1β, LPS, or R848 Stimulated IL6 Inhibition and IL-1β Stimulated IL8 Inhibition Assay
(§2) Human PBMC cells were seeded at 2.0×10^6 cells/mL, treated with compound overnight, and dosed with the EC50 concentration of each stimulant (either IL-1B. LPS, or R848) was determined for each donor. After 24 hrs, media was collected and analyzed by MSD for IL6 and/or IL8 levels.

IL8 = experiment: IL-1β stimulated IL8 inhibition assay in PBMC; conditions: human PBMCs, IL-1β stimulation, compound overnight, IL8 by MSD after 24 hrs; for IC50: read-out: IL1β stim IL8 inhibition IC50; for Emax: read-out: IL1β stim IL8 inhibition Ymax
Method: as §1, §2

IRAK-4 [1] = molecular target: T1, IRAK-4 (Homo sapiens, UniProt Q9NWZ3); experiment: IRAK-4 ELISA, OCI-Ly10 degradation; set-up: endogenous in cells; conditions: treated overnight; for Dmax: OCI-Ly10, OCI-Ly10 cells
T1 sequence (Q9NWZ3 1-460): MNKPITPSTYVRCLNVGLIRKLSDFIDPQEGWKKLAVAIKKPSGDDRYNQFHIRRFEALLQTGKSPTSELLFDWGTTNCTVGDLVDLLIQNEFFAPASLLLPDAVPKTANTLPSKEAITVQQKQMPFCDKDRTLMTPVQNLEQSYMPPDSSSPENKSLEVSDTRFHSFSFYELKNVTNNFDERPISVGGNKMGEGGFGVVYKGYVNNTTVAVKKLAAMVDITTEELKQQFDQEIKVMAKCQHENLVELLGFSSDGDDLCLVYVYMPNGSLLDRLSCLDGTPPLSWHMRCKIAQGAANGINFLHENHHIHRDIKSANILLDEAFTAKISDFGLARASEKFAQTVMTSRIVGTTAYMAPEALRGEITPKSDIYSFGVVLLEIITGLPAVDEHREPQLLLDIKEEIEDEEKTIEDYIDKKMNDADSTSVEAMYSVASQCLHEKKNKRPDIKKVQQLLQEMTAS
Procedure, shortened: (§3)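 Overnight compound treatment, started on the day of plating, of OCI-Ly10 (1×10^6/ml) and PBMC (2×10^6/ml) cultures. Lysates are collected and IRAK-4 content is read by sandwich ELISA.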

IRAK-4 [2] = molecular target: T1, IRAK-4; experiment: IRAK-4 ELISA, PBMC degradation; set-up: endogenous in cells; host or cells: PBMC; conditions: treated overnight
Procedure, shortened: as §3

SMILES | IC50 (IL6; Homo sapiens, PBMC, 24 h) | Emax (IL6; PBMC) | IC50 (IL8) | Emax (IL8) | Dmax (IRAK-4 [1]) | DC50 (IRAK-4 [1]; OCI-Ly10 cells) | DC50 (IRAK-4 [2]) | Dmax (IRAK-4 [2]) | PBMC DC90 (IRAK-4 [2]) | IL1β stim IL6 inhibition Ymax (IL6) | IC50 (IL6) | OCI-LY10 Dmax (IRAK-4 [1]; OCI-Ly10 cells) | PBMC Dmax (IRAK-4 [2])
CC(C)Oc1cc2c(cc1NC(=O)c1cnn3cccnc13)CN(C1CCN(CC3CN(c4ccc5c(c4)CN(C4CCC(=O)NC4=O)C5=O)C3)CC1)C2=O (stereo not shown) [Example 4] | < 10 nM | ≥ 90% | 10 to 50 nM | 80 to 90% | ≥ 90% | < 10 nM | < 1 nM | ≥ 90% | 4 nM | – | – | – | –
CC(C)Oc1cc2c(cc1NC(=O)c1cnn3cccnc13)CN(C1CCN(CC3CN(c4ccc5c(c4)C(=O)N(C4CCC(=O)NC4=O)C5=O)C3)CC1)C2=O (stereo not shown) [Example 5] | 10 to 50 nM | 80 to 90% | 50 to 100 nM | 80 to 90% | ≥ 90% | < 10 nM | 1 to 5 nM | 80 to 90% | 5 nM | – | – | – | –
Cc1cnc2c(C(=O)Nc3cc4c(cc3OC(C)C)C(=O)N(C3CCN(CCc5ccc6c(c5)CN(C5CCC(=O)NC5=O)C6=O)CC3)C4)cnn2c1 (stereo not shown) [Example 9] | < 10 nM | ≥ 90% | 10 to 50 nM | 70 to 80% | ≥ 90% | < 10 nM | 1 to 5 nM | 80 to 90% | A (A represents a DC90 value <10.0 nM) | – | – | – | –
COc1cc(N2CCC(CN3CCC(N4Cc5cc(NC(=O)c6cnn7cccnc67)c(OC(C)C)cc5C4=O)CC3)CC2)cc2c1C(=O)N(C1CCC(=O)NC1=O)C2=O (stereo not shown) [Example 12] | 10 to 50 nM | 80 to 90% | 10 to 50 nM | < 70% | ≥ 90% | < 10 nM | < 1 nM | ≥ 90% | A (A represents a DC90 value <10.0 nM) | – | – | – | –
O=C1CCC(N2Cc3cc(N4CC(CN5CCC(N6Cc7cc(NC(=O)c8cnn9cccnc89)c(OCC8CC8)cc7C6=O)CC5)C4)ccc3C2=O)C(=O)N1 (stereo not shown) [Example 29] | 10 to 50 nM | < 70% | 50 to 100 nM | 70 to 80% | 70 to 80% | < 10 nM | 1 to 5 nM | 80 to 90% | A (A represents a DC90 value <10.0 nM) | – | – | – | –
O=C1CCC(N2C(=O)c3ccc(N4CCC(CN5CCC(N6Cc7cc(NC(=O)c8cnn9cccnc89)c(OCC8CC8)cc7C6=O)CC5)CC4)cc3C2=O)C(=O)N1 (stereo not shown) [Example 30] | 10 to 50 nM | ≥ 90% | ≥ 100 nM | – | ≥ 90% | < 10 nM | < 1 nM | 80 to 90% | A (A represents a DC90 value <10.0 nM) | – | – | – | –
O=C1CCC(N2C(=O)c3ccc(N4CCC(CN5CCC(N6Cc7cc(NC(=O)c8cnn9cccnc89)c(N8CCOCC8)cc7C6=O)CC5)CC4)cc3C2=O)C(=O)N1 (stereo not shown) [Example 32] | – | – | ≥ 100 nM | ≥ 90% | – | < 10 nM | 1 to 5 nM | – | C (C represents a DC90 value ≥25.0 nM and <50 nM) | A (A represents a Ymax value ≥90) | 10 to 50 nM | D (D represents a Dmax value <70) | C (C represents a Dmax value ≥70 and <80)
O=C1CCC(N2Cc3cc(CCN4CCC(N5Cc6cc(NC(=O)c7cnn8cccnc78)c(N7CCOCC7)cc6C5=O)CC4)ccc3C2=O)C(=O)N1 (stereo not shown) [Example 36] | 10 to 50 nM | 70 to 80% | ≥ 100 nM | – | < 70% | < 10 nM | 1 to 5 nM | < 70% | B (B represents a DC90 value ≥10.0 nM and <25.0 nM) | – | – | – | –
O=C1CCC(N2C(=O)c3ccc(N4CCC(CN5CCC(N6Cc7cc(NC(=O)c8cnn9cccnc89)c(N8CCC(N9CCC9)CC8)cc7C6=O)CC5)CC4)cc3C2=O)C(=O)N1 (stereo not shown) [Example 38] | < 10 nM | ≥ 90% | ≥ 100 nM | ≥ 90% | ≥ 90% | < 10 nM | 1 to 5 nM | ≥ 90% | A (A represents a DC90 value <10.0 nM) | – | – | – | –
